Results from patent US12421252B2, “Spiro (isobenzofuranazetidine) compounds for the treatment of autoimmune disease” (Hoffmann-La Roche Inc., priority 2020, dated 2025).

Key:
[1] = biological target: T1, hTLR9 (Homo sapiens, UniProt Q9NR96); parameters: host or cells: HEK; settings: data disclosed in US20150105370; read-out: HEK/hTLR9 IC50; cited from earlier work
T1 sequence (Q9NR96 26-1032): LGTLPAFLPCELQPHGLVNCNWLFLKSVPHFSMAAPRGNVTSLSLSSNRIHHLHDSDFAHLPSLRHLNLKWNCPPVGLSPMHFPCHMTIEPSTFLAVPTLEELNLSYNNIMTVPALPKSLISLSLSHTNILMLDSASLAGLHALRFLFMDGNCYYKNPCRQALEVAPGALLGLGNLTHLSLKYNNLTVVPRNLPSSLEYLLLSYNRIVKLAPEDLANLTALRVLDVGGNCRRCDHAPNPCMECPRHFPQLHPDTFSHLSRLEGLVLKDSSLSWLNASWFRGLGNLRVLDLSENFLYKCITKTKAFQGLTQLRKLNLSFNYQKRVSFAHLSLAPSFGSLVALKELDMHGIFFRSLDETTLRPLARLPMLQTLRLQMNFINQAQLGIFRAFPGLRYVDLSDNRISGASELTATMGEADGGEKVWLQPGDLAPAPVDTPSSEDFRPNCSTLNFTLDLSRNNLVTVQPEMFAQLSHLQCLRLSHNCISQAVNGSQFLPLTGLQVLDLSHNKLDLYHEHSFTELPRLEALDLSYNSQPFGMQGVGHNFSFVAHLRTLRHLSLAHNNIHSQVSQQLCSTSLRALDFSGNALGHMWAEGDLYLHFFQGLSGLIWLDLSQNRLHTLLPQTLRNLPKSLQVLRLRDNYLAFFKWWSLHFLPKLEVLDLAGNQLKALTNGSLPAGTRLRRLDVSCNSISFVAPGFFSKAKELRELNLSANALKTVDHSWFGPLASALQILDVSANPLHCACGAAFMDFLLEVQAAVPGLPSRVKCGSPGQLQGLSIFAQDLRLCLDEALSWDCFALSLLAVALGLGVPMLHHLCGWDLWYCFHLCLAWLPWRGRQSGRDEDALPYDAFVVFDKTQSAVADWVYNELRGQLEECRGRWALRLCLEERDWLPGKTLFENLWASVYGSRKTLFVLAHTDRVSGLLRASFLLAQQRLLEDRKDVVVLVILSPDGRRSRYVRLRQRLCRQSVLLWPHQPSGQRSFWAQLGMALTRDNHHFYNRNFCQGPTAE

[2] = biological target: T2, hERG channel (Homo sapiens, UniProt Q12809); experiment: hERG channel inhibition assay (patch-clamp, CHO hERG cells); type: cell-based; settings: for safety window (hERG IC20/TLR7/8/9 IC50, in words): compared to the compounds of this invention; for hERG IC20/TLR7 IC50 / hERG IC20/TLR9 IC50: safety ratio
T2 construct: expressed in transfected cells
T2 sequence (Q12809 whole entry): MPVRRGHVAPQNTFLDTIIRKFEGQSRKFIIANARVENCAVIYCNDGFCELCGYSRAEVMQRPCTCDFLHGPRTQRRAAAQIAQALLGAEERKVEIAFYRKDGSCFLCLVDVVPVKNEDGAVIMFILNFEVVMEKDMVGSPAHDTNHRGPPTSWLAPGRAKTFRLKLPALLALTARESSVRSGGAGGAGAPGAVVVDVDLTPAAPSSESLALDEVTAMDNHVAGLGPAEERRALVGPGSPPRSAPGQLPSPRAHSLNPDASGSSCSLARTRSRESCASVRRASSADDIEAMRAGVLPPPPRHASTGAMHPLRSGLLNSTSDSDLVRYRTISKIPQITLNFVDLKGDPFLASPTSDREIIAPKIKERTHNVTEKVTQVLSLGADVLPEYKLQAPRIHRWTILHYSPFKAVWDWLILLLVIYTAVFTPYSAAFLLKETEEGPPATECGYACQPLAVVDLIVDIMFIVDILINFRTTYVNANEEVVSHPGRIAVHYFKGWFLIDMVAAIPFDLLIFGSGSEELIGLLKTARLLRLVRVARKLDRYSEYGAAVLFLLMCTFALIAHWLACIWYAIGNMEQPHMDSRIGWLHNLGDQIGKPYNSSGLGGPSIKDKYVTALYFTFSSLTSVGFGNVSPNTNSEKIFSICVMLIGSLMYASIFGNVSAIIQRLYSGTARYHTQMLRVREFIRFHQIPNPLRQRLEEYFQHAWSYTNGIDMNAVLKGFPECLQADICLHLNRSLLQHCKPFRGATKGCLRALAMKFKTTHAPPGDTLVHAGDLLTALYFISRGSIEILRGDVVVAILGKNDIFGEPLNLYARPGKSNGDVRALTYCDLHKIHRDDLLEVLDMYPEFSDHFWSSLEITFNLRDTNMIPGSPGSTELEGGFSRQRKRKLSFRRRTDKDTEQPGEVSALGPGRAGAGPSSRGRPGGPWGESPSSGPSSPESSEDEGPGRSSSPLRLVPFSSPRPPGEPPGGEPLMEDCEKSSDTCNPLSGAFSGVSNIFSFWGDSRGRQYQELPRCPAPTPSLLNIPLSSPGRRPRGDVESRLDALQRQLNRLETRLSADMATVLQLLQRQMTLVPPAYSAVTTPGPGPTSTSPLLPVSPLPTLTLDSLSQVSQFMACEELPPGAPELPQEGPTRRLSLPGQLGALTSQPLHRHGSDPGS
Description: hERG Channel Inhibition Assay:
The hERG K+ channels were cloned in humans and stably expressed in a CHO (Chinese hamster ovary) cell line. CHOhERG cells were used for patch-clamp (voltage-clamp, whole-cell) experiments. Cells were stimulated by a voltage pattern to activate hERG channels and conduct IKhERG Currents (rapid delayed outward rectifier potassium current of the hERG channel). After the cells were stabilized for a few minutes, the amplitude and kinetics of IKhERG were recorded at a stimulation frequency of 0.1 Hz, (6 bpm). Thereafter, the test compound was added to the preparation at increasing concentrations. For each concentration, an attempt was made to reach a steady-state effect, usually, this was achieved within 3-10 min at which time the next highest concentration was applied. The amplitude and kinetics of IKhERG are recorded in each concentration of the drug which were compared to the control values (taken as 100%). (references: Redfern W S, Carlsson L, Davis A S, Lynch W G, MacKenzie I, Palethorpe S, Siegl P K, Strang I, Sullivan A T, Wallis R, Camm A J, Hammond T G. 2003; Relationships between preclinical cardiac electrophysiology, clinical QT interval prolongation and torsade de pointes for a broad range of drugs: evidence for a provisional safety margin in drug development. Cardiovasc. Res. 58:32-45, Sanguinetti M C, Tristani-Firouzi M. 2006; hERG potassium channels and cardiac arrhythmia. Nature 440:463-469, Webster R, Leishman D, Walker D. 2002; Towards a drug concentration effect relationship for QT prolongation and torsades de pointes. Curr. Opin. Drug Discov. Devel. 5:116-26).

[3] = biological target: T3, CYP3A4 (Homo sapiens, UniProt P08684); experiment: CYP inhibition assay in human liver microsome, CYP3A4; type: in vitro ADME; settings: percentage inhibition, substrate Midazolam 5 μM, <0: not or weak inhibitor
T3 construct: tissue BD-Gentest 452117; host or cells: human liver microsomes
T3 sequence (P08684 whole entry): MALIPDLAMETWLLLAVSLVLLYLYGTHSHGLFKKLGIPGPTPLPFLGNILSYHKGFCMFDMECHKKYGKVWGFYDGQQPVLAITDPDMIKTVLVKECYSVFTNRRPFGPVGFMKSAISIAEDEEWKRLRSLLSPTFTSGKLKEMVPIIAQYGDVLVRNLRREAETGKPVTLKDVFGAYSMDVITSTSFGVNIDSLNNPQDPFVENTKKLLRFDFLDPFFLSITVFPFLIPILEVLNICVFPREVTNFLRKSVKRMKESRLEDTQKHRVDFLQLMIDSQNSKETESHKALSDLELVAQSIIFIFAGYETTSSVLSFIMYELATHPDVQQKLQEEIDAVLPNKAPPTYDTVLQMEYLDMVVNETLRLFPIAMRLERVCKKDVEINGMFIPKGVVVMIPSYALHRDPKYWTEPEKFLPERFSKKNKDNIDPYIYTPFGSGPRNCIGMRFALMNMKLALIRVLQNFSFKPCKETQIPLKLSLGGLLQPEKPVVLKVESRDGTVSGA
Description: (§1) This is a high throughput screening assay used for assessment of reversible inhibition of CYP2C9, CYP2D6, and CYP3A4 activity of test compounds in human liver microsome (HLM) in early discovery stage.
(§2) Procedure 10 mM DMSO stock solutions of test compounds were diluted in DMSO to generate 2 mM intermediate stock solution. 250 nL of intermediate stock solution were transferred in duplicate into 3 separate 384 well microtitre plates (assay-ready plates). A mixture of HLM and each substrate was made up. 45 μL of HLM substrate mix was then transferred to each well of an assay ready plate and mixed. The negative (solvent) and positive controls (standard inhibitor for each CYP) were included in each assay ready plate. The assay ready plate was warmed to 37° C. in an incubator over 10 minutes. 5 μL pre-warmed NADPH regenerating system was added to each incubation well to start the reaction. Final incubation volume was 50 μL. The assay plate then was placed back in the 37° C. incubator. After incubation (10 minutes for CYP2D6) for 5 minutes, incubates were quenched by addition of 50 μL 100% acetonitrile containing internal standards (400 ng/mL 13C6-4′-OH-Diclofenac, 20 ng/mL D3-Dextrorphan and 20 ng/mL D4-1′OH-Midazolam). The supernatants were collected for RapidFire/MS/MS analysis.
(§3) RapidFire online solid phase extraction/sample injection system (Agilent) coupled with API4000 triple quadrupole mass spectrometer (AB Sciex) were used for sample analysis. The mobile phase composed of acetonitrile and water supplemented with 0.1% formic acid. A C4 solid phase extraction cartridge is used for sample separation. MS detection is achieved in positive ion MRM mode.
(§4) Data analysis Peak areas for substrate, metabolite and internal standard are determined using the RapidFire integrator software (version 3.6.12009.12296). Peak area ratios (PAR) of metabolite and internal standard (stable-labelled metabolite) are then calculated. The measurement window for each experiment is then defined: PAR (0% activity)=average PAR for all incubations containing concentrated inhibitor; Par (100% activity)=average PAR for all incubations containing no inhibitor (DMSO controls); % Activity (test inhibitor)=[PAR (test inhibitor)-PAR (0% activity)]/[PAR (100% activity)-PAR (0% activity)]; % Inhibition (test inhibitor)=100-% Activity (test inhibitor).

[4] = biological target: T4, CYP2D6 (Homo sapiens, UniProt P10635); experiment: CYP inhibition assay in human liver microsome, CYP2D6; type: in vitro ADME; settings: percentage inhibition, substrate Dextromethorphan 5 μM, <0: not or weak inhibitor
T4 construct: tissue BD-Gentest 452117; host or cells: human liver microsomes
T4 sequence (P10635 whole entry): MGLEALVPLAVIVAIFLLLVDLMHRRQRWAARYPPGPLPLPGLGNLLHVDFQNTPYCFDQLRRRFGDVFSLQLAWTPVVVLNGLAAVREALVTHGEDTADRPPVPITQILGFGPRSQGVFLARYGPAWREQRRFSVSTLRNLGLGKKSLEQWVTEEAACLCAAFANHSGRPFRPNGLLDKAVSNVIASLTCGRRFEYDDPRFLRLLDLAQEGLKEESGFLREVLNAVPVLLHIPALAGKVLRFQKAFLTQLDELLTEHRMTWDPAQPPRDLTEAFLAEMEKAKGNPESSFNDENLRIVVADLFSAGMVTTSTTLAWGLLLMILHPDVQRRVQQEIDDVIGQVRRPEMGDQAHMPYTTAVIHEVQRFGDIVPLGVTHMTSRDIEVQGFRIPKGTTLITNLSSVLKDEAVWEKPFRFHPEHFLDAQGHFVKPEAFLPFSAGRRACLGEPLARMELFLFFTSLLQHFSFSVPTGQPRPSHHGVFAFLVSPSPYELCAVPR
Description: as §1, §2, §3, §4

[5] = biological target: T5, CYP2C9 (Homo sapiens, UniProt P11712); experiment: CYP inhibition assay in human liver microsome, CYP2C9; type: in vitro ADME; settings: percentage inhibition, substrate Diclofenac 5 μM, <0: not or weak inhibitor
T5 construct: tissue BD-Gentest 452117; host or cells: human liver microsomes
T5 sequence (P11712 whole entry): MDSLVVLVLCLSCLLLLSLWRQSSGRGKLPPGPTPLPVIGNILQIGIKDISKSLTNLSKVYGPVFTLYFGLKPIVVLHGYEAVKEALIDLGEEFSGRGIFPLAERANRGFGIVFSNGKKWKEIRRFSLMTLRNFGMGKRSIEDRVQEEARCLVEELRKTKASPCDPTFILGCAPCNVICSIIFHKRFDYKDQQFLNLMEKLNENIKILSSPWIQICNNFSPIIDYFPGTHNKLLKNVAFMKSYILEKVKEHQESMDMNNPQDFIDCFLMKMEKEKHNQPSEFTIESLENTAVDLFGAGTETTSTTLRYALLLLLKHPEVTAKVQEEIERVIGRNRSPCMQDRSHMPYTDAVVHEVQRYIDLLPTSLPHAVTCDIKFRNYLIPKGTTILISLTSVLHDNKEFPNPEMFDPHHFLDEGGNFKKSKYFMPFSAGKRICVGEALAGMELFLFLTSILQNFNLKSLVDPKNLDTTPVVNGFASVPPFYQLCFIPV
Description: as §1, §2, §3, §4

CYP (%) 3A4 [3] [%]	CYP (%) 2D6 [4] [%]	CYP (%) 2C9 [5] [%]	Structure (SMILES)	IC50 [1] [nM]	safety window (hERG IC20/TLR7/8/9 IC50, in words) [2]	hERG IC20/TLR7 IC50 [2]	hERG IC20/TLR9 IC50 [2]
–	–	–	C[C@@H]1CN(c2ccc(C#N)c3ncccc23)C[C@H](CN2CCN(c3ccccn3)CC2)O1 [ER-888285, reference compound]	> 2000	much narrower safety window	8.4	0.5
–	–	–	C[C@@H]1CN(c2ccc(C#N)c3ncccc23)C[C@H](CN2CCN(c3ccccc3)CC2)O1 [ER-887258, reference compound]	> 2000	much narrower safety window	8.1	0.3
5.5	52.5	29.5	C[C@@H]1CN(c2ccc(C#N)c3ncccc23)C[C@H](CN2CCN(c3ccncc3)CC2)O1 [ER-888286, reference compound]	> 2000	much narrower safety window	0.3	0.2
